Among the data in patent publication US20150094354A1, “METHOD FOR TREATING CELL PROLIFERATIVE DISORDER BY INHIBITING C1GALT1 EXPRESSION” (National Taiwan University, priority 2013, published 2015) are cell cycle, cell viability and C1GALT1 expression values, retold here.

Holding throughout (assay type): cell-based, human
The subject of data set [1] is PLC5 cells. Nature of the data set: Cell-cycle analysis by propidium iodide flow cytometry. As to conditions: PLC5 (not shown). How it is done:
(§1) Cells (4×10^4) are seeded in each well of 6-well plates with DMEM containing 10% FBS. Viable cells are analyzed by Trypan blue exclusion assay at 0, 24, 48, and 72 hours. Cell proliferation is evaluated by immunostaining with anti-Ki67 antibody (1:1000; Vector Laboratories). For cell-cycle analysis, 1×10^6 cells are stained with propidium iodide (Sigma) for 30 minutes. The percentages of cells in G1, S, and G2M phases are analyzed by flow cytometry (Becton Dickinson).
(§2) FIGS. 10A-10B are schematic diagrams illustrating the effects of C1GALT1 on cell proliferation of hepatocellular carcinoma cells in vitro in accordance with an embodiment of the present invention. Cells were immunofluorescently stained for Ki67 and Ki67-positive cells were counted under a microscope. Results are presented as means±SD from three independent experiments. *, P<0.05; **, P<0.01.
On the technique in general: A flow cytometer gives signals particle by particle.

Data set [2] relates to HA22T cells. The description is as above. As to conditions: HA22T (not shown). How it is done:
as §1, §2

Data set [3] concerns PLC5 cells. Nature of the data set: Trypan blue exclusion cell viability assay. As to conditions: PLC5, up to 72 hours. As for the experimental part: as §1
(§3) FIGS. 9A-9B are schematic diagrams illustrating the effects of C1GALT1 on the cell viability of hepatocellular carcinoma cells in vitro in accordance with an embodiment of the present invention. Cell viability of HA22T, PLC5, Sk-Hep1, and HCC36 cells was analyzed by Trypan blue exclusion assays at different time points for 72 hours. The results were standardized by the cell number at 0 hour. Data are represented as means±SD from three independent experiments. *, P<0.05; **, P<0.01.

Data set [4] has as its system HA22T cells. The data set can be described thus: Trypan blue exclusion cell viability assay. As to conditions: up to 72 hours. As for the experimental part:
as §1, §3

The test system of data set [5] is C1GALT1. Nature of the data set: Knockdown of C1GALT1 expression confirmed by Western blotting / Q-PCR. The note with it: siRNA. An excerpt:
According to an embodiment of the present invention, in the experiment in vitro, two siRNA oligonucleotides against C1GALT1, 5′-[…] GG-3′ (SEQ ID NO: 1) and 5′-[…]-3′ (SEQ ID NO: 2), used as the C1GALT1 inhibition substance and a negative control siRNA of medium GC are synthesized by Invitrogen company.
According to another embodiment of the present invention, in the experiment in vivo, the pLKO/C1GALT1-shRNA plasmid containing the sequence, 5′-CCCAGCCTAATG TTCTTCATA-3′(SEQ ID NO: 13), against C1GALT1 is used as the C1GALT1 inhibition substance. The pLKO/C1GALT1-shRNA plasmid and non-targeting pLKO plasmids (as a negative control) are purchased from National RNAi Core Facility (Academia Sinica, Taipei, Taiwan). The short hairpin RNA (shRNA, 20 nM) plasmids are transfected with Lipofectamine® 2000 and selected with 500 ng/mL of puromycin for 10 days. […] Subsequently, 7×10^6 of hepatocellular carcinoma cells containing the pLKO/C1GALT1-shRNA plasmid and the non-targeting pLKO plasmid are subcutaneously injected into severe combined immunodeficient (SCID) mice (n=4 for each group). Tumor volumes are monitored for […]. Excised tumors are weighed and lysed for Western blotting and immunohistochemistry.
Equal amounts of protein samples are mixed with 5× sample buffer and boiled for 5 minutes, separated on SDS-polyacrylamide gels, and then transferred to PVDF membrane. The membranes are blocked in 5% BSA for 1 hour at room temperature, and incubated with primary antibodies overnight at 4° C. Anti-phosphotyrosine (4G10) antibody (Millipore, Billerica, Mass.), antibodies against C1GALT1, GAPDH, IGF-IR, MET pY 1234/5, IGF-IR pY1135/1136, p-AKT, p-ERK1/2, and ERK1/2 antibody (BD Pharmingen, San Jose, Calif.) are used. The blots are then incubated with secondary antibody conjugated with horseradish peroxidase and immunoreacted bands are detected by ECL reagents and exposed on x-ray film.
Total RNA is isolated using TRIzol reagent (Invitrogen) according to the manufacturer's protocol. Two micrograms of total RNA is used in reverse transcription reaction using the Superscript III First-Strand cDNA Synthesis Kit (Invitrogen). The cDNA is subjected to quantitative real-time RT-PCR (Q-PCR). Quantitative PCR System Mx3000P (Stratagene, La Jolla, Calif.) is used for quantitative real-time RT-PCR. Reactions are performed in a 20 μl volume with 2 μl cDNA, 400 nM of sense and anti-sense primers, and 10 μl Brilliant®SYBR®Green Q-PCR Master Mix (Stratagene). Primer sets are designed as the following: Primers for C1GALT1 are 5′-[…]-3′ (SEQ ID NO: 5) and 5′-[…]-3′(SEQ ID NO: 6). Primers for GAPDH are 5 ‘-[…]-3’ (SEQ ID NO: 8) and 5′-[…]-3′ (SEQ ID NO: 7). The relative quantity of gene expression normalized to GAPDH is analyzed using MxPro Software (Stratagene). […]

In the case of “C1GALT1 si-1: siRNA oligonucleotide against C1GALT1, presumably SEQ ID NO: 1, UUAGUAUACGUUCAGGUAAGGUAGG (chemistry not given here)”, the cell cycle result in data set [1] and in data set [2] was “G1-phase arrest” throughout. Besides, the cell viability entry in data set [3] and in data set [4] was “significantly suppressed” each time. Further, the C1GALT1 expression entry in data set [5] (HA22T cells) and in data set [5] (PLC5 cells) was “knockdown of C1GALT1” in each case.

As to “C1GALT1 si-2: siRNA oligonucleotide against C1GALT1, presumably SEQ ID NO: 2, UUAUGUUGGCUAGAAUCUGCAUUGA (chemistry not given here)”, the cell cycle entry in data set [1] and in data set [2] was “G1-phase arrest” each time. The cell viability entry in data set [3] and in data set [4] was “significantly suppressed” each time. Besides, the C1GALT1 expression entry in data set [5] (HA22T cells) and in data set [5] (PLC5 cells) was “knockdown of C1GALT1” in each case.
